Read-outs that look alike come from different tables or passages of the source.
Columns and labels:
[1] = system: pseudotyped HCV GT1b particles (HCVpp); assay: microbe, parasite or virus in culture; format: cell-based, HCV GT1b Con1 strain
[2] = system: pseudotyped VSV G particles (VSVpp); assay: microbe, parasite or virus in culture; format: cell-based, vesicular stomatitis virus
[3] = Hepatitis C virus, GT1B, 72 h, read-out: HCVpp GT-1b (EC50, μM)
[4] = Vesicular stomatitis virus, 72 h, read-out: VSVpp (EC50, μM)

Compound: Cn1cc(-c2c(Cl)cc(Nc3n[nH]c(N)n3)cc2Cl)c(C(F)(F)F)n1 [Compound 42, N-3-[3,5-Dichloro-4-(1-methyl-3-trifluoromethyl-1H-pyrazol-4-yl)-phenyl]-1H-[1,2,4]triazole-3,5-diamine]
- EC50 [1, 3]: 0.0527 µM
- EC50 [2, 4]: 2.4 µM

Compound: Nc1nc(Nc2cc(Cl)c(-c3cncc(Cl)c3)c(Cl)c2)n[nH]1 [Compound 43, N-3-[3,5-Dichloro-4-(5-chloro-pyridin-3-yl)-phenyl]-1H-[1,2,4]triazole-3,5-diamine]
- EC50 [1, 3]: 0.771 µM
- EC50 [2, 4]: 5.3 µM

Compound: COc1cccc(-c2c(Cl)cc(Nc3n[nH]c(N)n3)cc2Cl)n1 [Compound 44, N-3-[3,5-Dichloro-4-(6-methoxy-pyridin-2-yl)-phenyl]-1H-[1,2,4]triazole-3,5-diamine]
- EC50 [1, 3]: 1.16 µM
- EC50 [2, 4]: 7.8 µM

Compound: N*3*-{3-Chloro-4-[6-(propane-2-sulfonyl)-pyridin-3-yl]-5-trifluoromethyl-phenyl}-1H-[1,2,4]triazole-3,5-diamine [Compound 23]
- EC50 ([1]; read-out: HCVpp GT-1b (EC50)): 0.179 µM
- EC50 ([2]; read-out: VSVpp (EC50)): 7.5 µM

Compound: tert-Butyl 4-(4-(5-amino-1H-1,2,4-triazol-3-ylamino)-2-chloro-6-(trifluoromethyl)phenyl)-5,6-dihydropyridine-1(2H)-carboxylate [Compound 20]
- EC50 ([1]; read-out: HCVpp GT-1b (EC50)): 0.073 µM
- EC50 ([2]; read-out: VSVpp (EC50)): 13.6 µM

Reference: patent US9540345B2, “Antiviral compounds” (priority 2013, dated 2017)
